According to PubChem BioAssay (NCI):
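Values below derive from 48-hour exposures of cells grown in 96-well plates, with endpoints linearly interpolated between the two concentrations bracketing the appropriate inhibition level. GI50 = concentration required for 50% inhibition of growth. At the TGI there is no net growth.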

Experiments:
Experiment in all cases: growth of human tumour cells (NCI), 48 h
[1] = test system: MDA-MB-435
[2] = test system: DU-145 prostate
[3] = test system: SK-MEL-5 melanoma
[4] = test system: A498 renal
[5] = test system: HT29 colon
[6] = test system: SK-MEL-2 melanoma
[7] = test system: COLO 205 colon
[8] = test system: HCT-116 colon
[9] = test system: EKVX NSCLC
[10] = test system: RPMI-8226 leukemia
[11] = test system: M14 melanoma
[12] = test system: ACHN renal
[13] = test system: BT-549 breast
[14] = test system: SR leukemia
[15] = test system: MOLT-4 leukemia
[16] = test system: HL-60(TB) leukemia
[17] = test system: SK-MEL-28 melanoma
[18] = test system: HCT-15 colon
[19] = test system: NCI-H522 lung
[20] = test system: HOP-92 NSCLC
[21] = test system: NCI/ADR-RES ovarian
[22] = test system: UO-31 renal
[23] = test system: OVCAR-5 ovarian
[24] = test system: SF-268 CNS
[25] = test system: OVCAR-4 ovarian
[26] = test system: HS 578T breast
[27] = test system: KM12 colon
[28] = test system: MALME-3M melanoma
[29] = test system: SK-OV-3 ovarian
[30] = test system: CAKI-1 renal
[31] = test system: NCI-H226 lung
[32] = test system: MCF7 breast
[33] = test system: PC-3 prostate
[34] = test system: IGROV1 ovarian
[35] = test system: LOX IMVI melanoma
[36] = test system: UACC-257 melanoma
[37] = test system: MDA-MB-231 breast
[38] = test system: U251 CNS
[39] = test system: SNB-75 CNS
[40] = test system: CCRF-CEM leukemia
[41] = test system: NCI-H23 lung
[42] = test system: A549 NSCLC
[43] = test system: OVCAR-3 ovarian
[44] = test system: HOP-62 NSCLC
[45] = test system: RXF 393 renal
[46] = test system: TK-10 renal
[47] = test system: 786-0 renal
[48] = test system: OVCAR-8 ovarian
[49] = test system: SN12C renal
[50] = test system: HCC-2998 colon
[51] = test system: T-47D breast
[52] = test system: K-562 leukemia
[53] = test system: SW-620 colon
[54] = test system: SF-295 CNS
[55] = test system: NCI-H460 lung
[56] = test system: SNB-19 CNS
[57] = test system: UACC-62 melanoma

CC12OC(CC(O)C1O)n1c3ccccc3c3c4c(c5c6ccccc6n2c5c31)C(=O)N(CCN1CCCC1)C4=O (centres undefined) gave a GI50 [1] of 1.7 µM, a TGI [1] of 8.11 µM and a GI50 [2] of 1.06 µM. For the same molecule, the TGI [2] was 5.82 µM, the GI50 [3] was 1.22 µM and the TGI [3] was 7.12 µM. The GI50 [4] was 1.5 µM, the TGI [4] was 7.5 µM and the GI50 [5] was 0.434 µM. For the same molecule, the TGI [5] was 7.07 µM, the GI50 [6] was 5.16 µM and the TGI [6] was 12.9 µM. The GI50 [7] was 0.377 µM, the TGI [7] was 6.16 µM and the GI50 [8] was 0.321 µM. The TGI [8] was 6.35 µM, the GI50 [9] was 1.67 µM and the TGI [9] was 9.64 µM. The GI50 [10] was 1.32 µM, the TGI [10] was 4.43 µM and the GI50 [11] was 1.23 µM. The TGI [11] was 7.64 µM, the GI50 [12] was 0.336 µM and the TGI [12] was 2.34 µM. It also gave a GI50 [13] of 3.85 µM, a TGI [13] of 11.5 µM and a GI50 [14] of 0.149 µM. For the same molecule, the TGI [14] was 6.08 µM, the GI50 [15] was 0.197 µM and the TGI [15] was 16.5 µM. It also gave a GI50 [16] of 0.562 µM, a TGI [16] of 8.7 µM and a GI50 [17] of 2.24 µM. It also gave a TGI [17] of 9.7 µM, a GI50 [18] of 1 µM and a TGI [18] of 6.77 µM. The GI50 [19] was 0.606 µM, the TGI [19] was 5.4 µM and the GI50 [20] was 3.85 µM. The TGI [20] was 10.3 µM, the GI50 [21] was 6.31 µM and the TGI [21] was 14.5 µM. The GI50 [22] was 1.5 µM, the TGI [22] was 9.95 µM and the GI50 [23] was 2.25 µM. For the same molecule, the TGI [23] was 14.9 µM, the GI50 [24] was 0.789 µM and the TGI [24] was 8.47 µM. It also gave a GI50 [25] of 1.88 µM, a TGI [25] of 12.3 µM and a GI50 [26] of 3.05 µM. It also gave a TGI [26] of 13.8 µM, a GI50 [27] of 1.3 µM and a TGI [27] of 8.68 µM. For the same molecule, the GI50 [28] was 1.3 µM, the TGI [28] was 8.41 µM and the GI50 [29] was 1.57 µM. It also gave a TGI [29] of 6.99 µM, a GI50 [30] of 1.41 µM and a TGI [30] of 9.01 µM. The GI50 [31] was 1.42 µM, the TGI [31] was 11.4 µM and the GI50 [32] was 0.199 µM. For the same molecule, the TGI [32] was 5.88 µM, the GI50 [33] was 1.79 µM and the TGI [33] was 9.13 µM. It also gave a GI50 [34] of 0.951 µM, a TGI [34] of 10.8 µM and a GI50 [35] of 0.308 µM. The TGI [35] was 1.45 µM, the GI50 [36] was 3.54 µM and the TGI [36] was 11.8 µM. For the same molecule, the GI50 [37] was 3.38 µM, the TGI [37] was 11.2 µM and the GI50 [38] was 0.488 µM. It also gave a TGI [38] of 6.51 µM, a GI50 [39] of 0.879 µM and a TGI [39] of 6.71 µM. It also gave a GI50 [40] of 0.936 µM, a TGI [40] of 10.7 µM and a GI50 [41] of 1.24 µM. The TGI [41] was 7.95 µM, the GI50 [42] was 0.282 µM and the TGI [42] was 6.17 µM. For the same molecule, the GI50 [43] was 1.77 µM, the TGI [43] was 8.95 µM and the GI50 [44] was 0.424 µM. The TGI [44] was 5.71 µM, the GI50 [45] was 1.23 µM and the TGI [45] was 7.25 µM. For the same molecule, the GI50 [46] was 1.21 µM, the TGI [46] was 10.4 µM and the GI50 [47] was 1.29 µM. It also gave a TGI [47] of 6.36 µM, a GI50 [48] of 1.1 µM and a TGI [48] of 9.12 µM. The GI50 [49] was 0.577 µM, the TGI [49] was 6.64 µM and the GI50 [50] was 3.96 µM. It also gave a TGI [50] of 10.8 µM, a GI50 [51] of 0.868 µM and a TGI [51] of 7.94 µM. The GI50 [52] was 0.68 µM, the TGI [52] was 19.4 µM and the GI50 [53] was 0.31 µM. The TGI [53] was 7.22 µM, the GI50 [54] was 0.291 µM and the TGI [54] was 5.96 µM. For the same molecule, the GI50 [55] was 0.161 µM, the TGI [55] was 1.06 µM and the GI50 [56] was 1.25 µM. It also gave a TGI [56] of 9.29 µM, a GI50 [57] of 0.513 µM and a TGI [57] of 2.58 µM.
